Source: the supplement of paper PMC10307832

Columns and labels:
Assay in all cases: relative viability (nuclei count vs DMSO), 5 days (fraction); higher = more cells survive
[1] = tested on: CAL-12T
Summary of the method: (§1)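 Lung cancer cell lines, seeded in 1536-well plates, were treated the following day by pin tool with a single drug or with five library-drug doses (not always all listed) in √10 steps on top of a fixed anchor-drug dose. Cells were fixed and nuclei stained in one step after 5 days, and nuclei were counted. Relative viability is the nuclei count for treated wells divided by that for vehicle wells, reported as medians of duplicate plates.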

[2] = tested on: EKVX
Summary of the method: as §1

[3] = tested on: H3255
Summary of the method: as §1

[4] = tested on: HCC-15
Summary of the method: as §1

[5] = tested on: HCC-827
Summary of the method: as §1

[6] = tested on: LCLC-97TM1
Summary of the method: as §1

[7] = tested on: NCI-H1355
Summary of the method: as §1

[8] = tested on: NCI-H1563
Summary of the method: as §1

[9] = tested on: NCI-H1650
Summary of the method: as §1

[10] = tested on: NCI-H1734
Summary of the method: as §1

[11] = tested on: NCI-H1755
Summary of the method: as §1

[12] = tested on: NCI-H1975
Summary of the method: as §1

[13] = tested on: NCI-H2228
Summary of the method: as §1

[14] = tested on: NCI-H2405
Summary of the method: as §1

[15] = tested on: NCI-H322M
Summary of the method: as §1

[16] = tested on: NCI-H520
Summary of the method: as §1

[17] = tested on: NCI-H661
Summary of the method: as §1

[18] = tested on: PC-14
Summary of the method: as §1

[19] = tested on: PC-3 [JPC-3]
Summary of the method: as §1

[20] = tested on: RERF-LC-KJ
Summary of the method: as §1

CC(=O)O[C@@]12CO[C@@H]1C[C@H](O)[C@@]1(C)C(=O)[C@H](O)C3=C(C)[C@@H](OC(=O)[C@H](O)[C@@H](NC(=O)OC(C)(C)C)c4ccccc4)C[C@@](O)([C@@H](OC(=O)c4ccccc4)[C@H]21)C3(C)C [Docetaxel] + CC(C)C[C@H](NC(=O)[C@H](Cc1ccccc1)NC(=O)c1cnccn1)B(O)O [Bortezomib] (partner 0.002 µM)
relative viability ([1]; first compound 0.0002 µM): 0.822 | relative viability ([1]; first compound 0.000632 µM): 0.404 | relative viability ([1]; first compound 0.002 µM): 0.348 | relative viability ([1]; first compound 0.006325 µM): 0.271 | relative viability ([1]; first compound 0.02 µM): 0.148 | relative viability ([2]; first compound 0.0002 µM): 1.05 | relative viability ([2]; first compound 0.000632 µM): 0.718 | relative viability ([2]; first compound 0.002 µM): 0.429 | relative viability ([2]; first compound 0.006325 µM): 0.269 | relative viability ([2]; first compound 0.02 µM): 0.152 | relative viability ([3]; first compound 0.0002 µM): 0.864 | relative viability ([3]; first compound 0.000632 µM): 0.497 | relative viability ([3]; first compound 0.002 µM): 0.489 | relative viability ([3]; first compound 0.006325 µM): 0.284 | relative viability ([3]; first compound 0.02 µM): 0.272 | relative viability ([4]; first compound 0.0002 µM): 0.807 | relative viability ([4]; first compound 0.000632 µM): 0.78 | relative viability ([4]; first compound 0.002 µM): 0.231 | relative viability ([4]; first compound 0.006325 µM): 0.216 | relative viability ([4]; first compound 0.02 µM): 0.157 | relative viability ([5]; first compound 0.0002 µM): 0.891 | relative viability ([5]; first compound 0.000632 µM): 0.962 | relative viability ([5]; first compound 0.002 µM): 1 | relative viability ([5]; first compound 0.006325 µM): 0.562 | relative viability ([5]; first compound 0.02 µM): 0.328 | relative viability ([6]; first compound 0.0002 µM): 0.624 | relative viability ([6]; first compound 0.000632 µM): 0.125 | relative viability ([6]; first compound 0.002 µM): 0.106 | relative viability ([6]; first compound 0.006325 µM): 0.083 | relative viability ([6]; first compound 0.02 µM): 0.051 | relative viability ([7]; first compound 0.0002 µM): 1.2 | relative viability ([7]; first compound 0.000632 µM): 1.14 | relative viability ([7]; first compound 0.002 µM): 0.673 | relative viability ([7]; first compound 0.006325 µM): 0.302 | relative viability ([7]; first compound 0.02 µM): 0.224 | relative viability ([8]; first compound 0.0002 µM): 0.912 | relative viability ([8]; first compound 0.000632 µM): 1.02 | relative viability ([8]; first compound 0.002 µM): 0.989 | relative viability ([8]; first compound 0.006325 µM): 0.741 | relative viability ([8]; first compound 0.02 µM): 0.582 | relative viability ([9]; first compound 0.0002 µM): 0.2 | relative viability ([9]; first compound 0.000632 µM): 0.196 | relative viability ([9]; first compound 0.002 µM): 0.204 | relative viability ([9]; first compound 0.006325 µM): 0.181 | relative viability ([9]; first compound 0.02 µM): 0.201 | relative viability ([10]; first compound 0.0002 µM): 0.865 | relative viability ([10]; first compound 0.000632 µM): 0.577 | relative viability ([10]; first compound 0.002 µM): 0.323 | relative viability ([10]; first compound 0.006325 µM): 0.325 | relative viability ([10]; first compound 0.02 µM): 0.222 | relative viability ([11]; first compound 0.0002 µM): 0.984 | relative viability ([11]; first compound 0.000632 µM): 0.743 | relative viability ([11]; first compound 0.002 µM): 0.45 | relative viability ([11]; first compound 0.006325 µM): 0.368 | relative viability ([11]; first compound 0.02 µM): 0.315 | relative viability ([12]; first compound 0.0002 µM): 0.366 | relative viability ([12]; first compound 0.000632 µM): 0.246 | relative viability ([12]; first compound 0.002 µM): 0.166 | relative viability ([12]; first compound 0.006325 µM): 0.15 | relative viability ([12]; first compound 0.02 µM): 0.141 | relative viability ([13]; first compound 0.0002 µM): 0.617 | relative viability ([13]; first compound 0.000632 µM): 0.212 | relative viability ([13]; first compound 0.002 µM): 0.149 | relative viability ([13]; first compound 0.006325 µM): 0.243 | relative viability ([13]; first compound 0.02 µM): 0.152 | relative viability ([14]; first compound 0.0002 µM): 0.988 | relative viability ([14]; first compound 0.000632 µM): 0.956 | relative viability ([14]; first compound 0.002 µM): 0.681 | relative viability ([14]; first compound 0.006325 µM): 0.394 | relative viability ([14]; first compound 0.02 µM): 0.308 | relative viability ([15]; first compound 0.0002 µM): 1.11 | relative viability ([15]; first compound 0.000632 µM): 1.22 | relative viability ([15]; first compound 0.002 µM): 1.05 | relative viability ([15]; first compound 0.006325 µM): 0.602 | relative viability ([15]; first compound 0.02 µM): 0.469 | relative viability ([16]; first compound 0.0002 µM): 0.45 | relative viability ([16]; first compound 0.000632 µM): 0.233 | relative viability ([16]; first compound 0.002 µM): 0.251 | relative viability ([16]; first compound 0.006325 µM): 0.172 | relative viability ([16]; first compound 0.02 µM): 0.108 | relative viability ([17]; first compound 0.0002 µM): 0.702 | relative viability ([17]; first compound 0.000632 µM): 0.784 | relative viability ([17]; first compound 0.002 µM): 0.68 | relative viability ([17]; first compound 0.006325 µM): 0.634 | relative viability ([17]; first compound 0.02 µM): 0.224 | relative viability ([18]; first compound 0.0002 µM): 0.826 | relative viability ([18]; first compound 0.000632 µM): 0.803 | relative viability ([18]; first compound 0.002 µM): 0.132 | relative viability ([18]; first compound 0.006325 µM): 0.103 | relative viability ([18]; first compound 0.02 µM): 0.0579 | relative viability ([19]; first compound 0.0002 µM): 0.794 | relative viability ([19]; first compound 0.000632 µM): 0.959 | relative viability ([19]; first compound 0.002 µM): 0.735 | relative viability ([19]; first compound 0.006325 µM): 0.263 | relative viability ([19]; first compound 0.02 µM): 0.193 | relative viability ([20]; first compound 0.0002 µM): 0.967 | relative viability ([20]; first compound 0.000632 µM): 0.841 | relative viability ([20]; first compound 0.002 µM): 0.499 | relative viability ([20]; first compound 0.006325 µM): 0.251 | relative viability ([20]; first compound 0.02 µM): 0.198
